Test results reported in US20260355239A1, “COMBINATION OF A T CELL THERAPY AND CONTINUOUS OR INTERMITTENT DGK INHIBITOR DOSING” (Juno Therapeutics, Inc., priority 2022, published 2026).

Legend:
Human venous whole blood = assay: Human Whole Blood IFN-γ Assay; type: cell-based; settings: anti-CD3 + anti-CD28, 24 h, normalized to 3 μM reference compound, read-out: INFg Whole Blood Normalized-Agonist EC50
Method: 9. Human Whole Blood IFN-γ Assay
Human venous whole blood (22.5 μL per well), obtained from healthy donors, was pre-treated with compounds for one hour at 37 °C in a humidified 95% air/5% CO2 incubator. The blood was stimulated with 2.5 μL anti-human CD3 and anti-CD28 mAb at a final concentration of 1 μg/mL each for 24 hours at 37 °C. IFN-γ in the supernatants was measured using AlphLISA kit (Cat #AL217).

naïve human CD8 T cells = assay: Human CD8 T Cells IFN-γ Assay; type: cell-based; settings: anti-CD3 + anti-CD28, 20 h, normalized to 3 μM reference compound, read-out: HuCD8 INFG Normalized EC50
Method: 7. Human CD8 T Cells IFN-γ Assay
Frozen naïve human CD8 T cells were thawed in AIM-V media, incubated for 2 h in 37 °C, and counted. The 384-well tissue culture plate was coated overnight at 4 °C with 20 μL anti-human CD3 at […] in PBS, which was removed off the plate before 40,000 cells per 40 microliters CD8 T cells with 0.1 μg/mL soluble anti-human CD28 were added to each well. The compounds were transferred using an Echo liquid handler to the cell plate immediately after the cells were plated. After 20 h incubation at 37 °C incubator, 3 microliters per well supernatants transferred into a new 384-well white assay plate for cytokine measurement.
Interferon-γ (IFN-γ) was quantitated using the AlphLISA kit (Cat #AL217) as described by the manufacturer manual (Perkin Elmer). The counts from each well were converted to IFN-γ concentration (pg/mL).

[1] = test system: OT-1 CD8+ T cells with MC38 tumor cells; assay: Murine Cytotoxic T Lymphocyte Assay (IFN-γ); type: cell-based, mouse; settings: OT-1 CTL with SIINFEKL-pulsed MC38 cells, 24 h; read-out: msCTL INFg IC50
Source text: 5. Murine Cytotoxic T Lymphocyte Assay
An antigen-specific cytolytic T-cell (CTL) assay was developed to evaluate functionally the ability of DGKα and DGKζ inhibitors to enhance effector T cell mediated tumor cell killing activity. CD8^+ T-cells isolated from the OT-1 transgenic mouse recognize antigen presenting cells, MC38, that present the ovalbumin derived peptide […]. Recognition of the cognate antigen initiates the cytolytic activity of the OT-1 antigen-specific CD8+ T cells.
Functional CTL cells were generated as follows: OT-1 splenocytes from 8-12 week old mice were isolated and expanded in the presence of the […] peptide at 1 μg/mL and mIL2 at 10 U/mL. After three days, fresh media with […] was added. On day 5 of the expansion, the CD8+ T cells were isolated and ready for use. Activated CTL cells may be stored frozen for 6 months. Separately, one million MC38 tumor cells were pulsed with 1 μg/mL of […]-OVA peptide for 3 hours at 37 °C. The cells were washed (3×) with fresh media to remove excess peptide. Finally, CTL cells that were pretreated with DGK inhibitors for 1 hour in a 96-well U bottom plate were combined with the antigen loaded MC38 tumor cells at a 1:10 ratio. The cells were then spun at 700 rpm for 5 min and placed in an incubator overnight at 37 °C After 24 hours, the supernatant was collected for analysis of IFN-γ cytokine levels by AlphaLisa purchased from Perkin Elmer.

Row | Compound | EC50 (Human venous whole blood) [nM] | EC50 (naïve human CD8 T cells) [nM] | EC50 [1] [nM]
1 | COC(=O)C1CN(c2cc(=O)n(C)c3ccc(C#N)nc23)CCN1C(c1ccc(F)cc1)c1ccc(F)cc1 (centres unmarked) [Compound 2, Methyl 1-(bis(4-fluorophenyl)methyl)-4-(6-cyano-1-methyl-2-oxo-1,2-dihydro-1,5-naphthyridin-4-yl)piperazine-2-carboxylate] | 520 | 62 | 64
2 | C[C@@H]1CN(c2c(C#N)c(=O)n(C)c3ccc(C#N)nc23)CCN1C(c1ccc(F)cc1)c1ccc(F)cc1 [Compound 4, (R)-8-(4-(bis(4-fluorophenyl)methyl)-3-methylpiperazin-1-yl)-5-methyl-6-oxo-5,6-dihydro-1,5-naphthyridine-2,7-dicarbonitrile] | 400 | 17 | 43
3 | C[C@@H]1CN(c2cc(=O)n(C)c3ccc(C#N)nc23)[C@@H](C)CN1C(c1ccccc1)c1ccc(F)cc1 (stereo partly drawn) [Compound 5, 8-[(2S,5R)-4-[(4-fluorophenyl) (phenyl)methyl]-2,5-dimethylpiperazin-1-yl]-5-methyl-6-oxo-5,6-dihydro-1,5-naphthyridine-2-carbonitrile] | 680 | 30 | –
4 | COc1ccc2c(n1)c(N1C[C@@H](C)N(C(c3ccc(F)cc3)c3ccc(Cl)cc3)C[C@@H]1C)cc(=O)n2C (stereo partly drawn) [Compound 8, 4-[(2S,5R)-4-[(4-chlorophenyl)(4-fluorophenyl)methyl]-2,5-dimethylpiperazin-1-yl]-6-methoxy-1-methyl-1,2-dihydro-1,5-naphthyridin-2-one] | – | 12000 | –
5 | C[C@@H]1CN(c2cc(=O)n(C)c3ccc(C#N)nc23)[C@@H](C)CN1Cc1ccc(F)cc1C(F)F [Compound 9, 8-[(2S,5R)-4-{[2-(difluoromethyl)-4-fluorophenyl]methyl}-2,5-dimethylpiperazin-1-yl]-5-methyl-6-oxo-5,6-dihydro-1,5-naphthyridine-2-carbonitrile] | 1500 | 170 | –
6 | Cc1ccc(C(c2ccc(F)cc2)N2C[C@H](C)N(c3cc(=O)n(C)c4ccc(C#N)nc34)C[C@H]2C)cc1 (stereo partly drawn) [Compound 10, 8-[(2S,5R)-4-[(4-fluorophenyl)(4-methylphenyl)methyl]-2,5-dimethylpiperazin-1-yl]-5-methyl-6-oxo-5,6-dihydro-1,5-naphthyridine-2-carbonitrile] | 440 | 23 | 32
7 | CC(c1c(F)cccc1F)N1C[C@H](C)N(c2cc(=O)n(C)c3ccc(C#N)nc23)C[C@H]1C (stereo partly drawn) [Compound 11, 8-[(2S,5R)-4-[1-(2,6-difluorophenyl)ethyl]-2,5-dimethylpiperazin-1-yl]-5-methyl-6-oxo-5,6-dihydro-1,5-naphthyridine-2-carbonitrile] | 650 | 22 | –
8 | CCC(c1ccc(F)cc1F)N1C[C@H](C)N(c2cc(=O)n(C)c3ccc(C#N)nc23)C[C@H]1C (stereo partly drawn) [Compound 12, 8-((2S,5R)-4-(1-(2,4-difluorophenyl)propyl)-2,5-dimethylpiperazin-1-yl)-5-methyl-6-oxo-5,6-dihydro-1,5-naphthyridine-2-carbonitrile] | 440 | 48 | –
9 | Cc1ccc(C(c2ccc(C)cc2)N2C[C@H](C)N(c3cc(=O)n(C)c4ccc(C#N)nc34)C[C@H]2C)cc1 [Compound 16, 8-[(2S,5R)-4-[bis(4-methylphenyl)methyl]-2,5-dimethylpiperazin-1-yl]-5-methyl-6-oxo-5,6-dihydro-1,5-naphthyridine-2-carbonitrile] | 520 | 9.5 | 72
10 | CCC(c1ccc(C(F)(F)F)cc1)N1C[C@H](CC)N(c2nc(=O)n(C)c3ccc(C#N)nc23)C[C@H]1CC (stereo partly drawn) [Compound 18, 4-((2S,5R)-2,5-Diethyl-4-(1-(4-(trifluoromethyl)phenyl)propyl)piperazin-1-yl)-1-methyl-2-oxo-1,2-dihydropyrido[3,2-d]pyrimidine-6-carbonitrile] | 3750 | – | –
11 | CC[C@@H]1CN(c2nc(=O)n(C)c3ccc(C#N)nc23)[C@@H](C)CN1C(C)c1ccc(C(F)(F)F)cc1 (stereo partly drawn) [Compound 19, 4-((2S,5R)-5-Ethyl-2-methyl-4-(1-(4-(trifluoromethyl)phenyl)ethyl)piperazin-1-yl)-1-methyl-2-oxo-1,2-dihydropyrido[3,2-d]pyrimidine-6-carbonitrile] | 520 | – | –
12 | CC[C@@H]1CN(c2nc(=O)n(C)c3ccc(C#N)nc23)[C@@H](C)CN1C(C)c1ccc(C(F)(F)F)cc1 (stereo partly drawn) [Compound 20, 4-((2S,5R)-5-Ethyl-2-methyl-4-(1-(4-(trifluoromethyl)phenyl)ethyl)piperazin-1-yl)-1-methyl-2-oxo-1,2-dihydropyrido[3,2-d]pyrimidine-6-carbonitrile] | 32 | – | –
13 | CC[C@@H]1CN(c2nc(=O)n(C)c3ccc(C#N)nc23)[C@@H](C)CN1C(c1ccc(F)cc1)c1ccc(C(F)(F)F)cn1 (stereo partly drawn) [Compound 21, 4-((2S,5R)-5-Ethyl-4-((4-fluorophenyl)(5-(trifluoromethyl)pyridin-2-yl)methyl)-2-methylpiperazin-1-yl)-1-methyl-2-oxo-1,2-dihydropyrido[3,2-d]pyrimidine-6-carbonitrile] | 43 | – | –
14 | CC[C@@H]1CN(c2nc(=O)n(C)c3ccc(C#N)nc23)[C@@H](C)CN1C(c1ccc(F)cc1)c1ccc(C(F)(F)F)cn1 (stereo partly drawn) [Compound 22, 4-((2S,5R)-5-Ethyl-4-((4-fluorophenyl)(5-(trifluoromethyl)pyridin-2-yl)methyl)-2-methylpiperazin-1-yl)-1-methyl-2-oxo-1,2-dihydropyrido[3,2-d]pyrimidine-6-carbonitrile] | 20 | – | –
15 | CC[C@@H]1CN(c2nc(=O)n(C)c3ccc(C#N)nc23)[C@@H](C)CN1C(c1ccc(Cl)cc1)c1ccccn1 (some centres unmarked) [Compound 23] | 10500 | – | –
16 | CC[C@@H]1CN(c2nc(=O)n(C)c3ccc(C#N)nc23)[C@@H](C)CN1C(c1ccc(Cl)cc1)c1ccccn1 (some centres unmarked) [Compound 24] | 200 | – | –
17 | CC[C@H]1CN(C(c2ccc(F)cc2)c2nc(C3CC3)no2)[C@H](CC)CN1c1nc(=O)n(C)c2ccc(C#N)nc12 (some centres unmarked) [Compound 25] | 15 | – | –
18 | CC[C@H]1CN(C(c2ccc(F)cc2)c2nc(C3CC3)no2)[C@H](CC)CN1c1nc(=O)n(C)c2ccc(C#N)nc12 (some centres unmarked) [Compound 26] | 90 | – | –
19 | C[C@@H]1CN(c2nc(=O)n(C)c3ccc(C#N)nc23)[C@@H](C)CN1C(c1ccc(F)cc1)c1ccc(C(F)(F)F)cn1 (stereo partly drawn) [Compound 28, 4-((2S,5R)-4-((4-fluorophenyl)(5-(trifluoromethyl)pyridin-2-yl)methyl)-2,5-dimethylpiperazin-1-yl)-1-methyl-2-oxo-1,2-dihydropyrido[3,2-d]pyrimidine-6-carbonitrile] | 240 | – | –
20 | CCC[C@@H]1CN(c2nc(=O)n(C)c3ccc(C#N)nc23)[C@@H](C)CN1C(C)c1ccc(C(F)(F)F)cc1 (stereo partly drawn) [Compound 33, 1-Methyl-4-((2S,5R)-2-methyl-5-propyl-4-(1-(4-(trifluoromethyl)phenyl)ethyl)piperazin-1-yl)-2-oxo-1,2-dihydropyrido[3,2-d]pyrimidine-6-carbonitrile] | 20000 | – | –
